Key:
[1] = target: T1, human ether-a-go-go related gene (hERG) channel (Homo sapiens, UniProt Q12809); test: Test Example 3-2: hERG test (FluxORII thallium flux, FLIPR, 4000 cells/well); type: cell-based; conditions: CHO cells expressing hERG channel, compound reacted for 10 minutes, 100% inhibition = E-4031 10.3 µmol/L
T1 construct: expressed in transfected cells; host or cells: CHO cells
Description: For the purpose of evaluating risk of an electrocardiogram QT interval prolongation of the compound of the present invention, effects of the compound are studied by evaluating the activity of potassium channel using CHO cells expressing human ether-a-go-go related gene (hERG) channel.
Evaluation is performed using a FluxORII Green Potassium Ion Channel Assay kit (Invitrogen: Molecular Probes).
Cells (4000 cells/well/40 µL) are seeded in a 384 assay plate, and are incubated overnight (37°C, 5% CO2). After replacing the medium with a Wash buffer (lxHBSS, 20 mM HEPES) with a microplate washer, a fluorescent indicator is added to the medium and allowed to incubate (37°C, 5% CO2) for 1 hour for incorporation of the fluorescent indicator into cells.
A cell plate is placed on a cell-based kinetic assay system FLIPR (Molecular Devices, LLC.), and the compound is added to the cells so as to have a desired concentration and reacted for 10 minutes. When a mixed solution of potassium and thallium as a stimulator is added thereto, the potassium channel is opened, and thallium that flowed into the cells binds to the fluorescent indicator, so that the intracellular fluorescence signal increases, and the potassium channel current is detected as a fluorescence signal. […] Then, the inhibition rate is calculated from the signal intensity at each concentration. IC50 is calculated from the inhibition rate at each concentration.

[2] = target: T2, human recombinant 5-HT2C receptor (Homo sapiens, UniProt P28335); test: Test Example 2-2: 5-HT2C receptor binding inhibition test ([3H]-Mesulergine; non-specific ligand Ketanserin); conditions: non-specific binding with 500 µmol/L Ketanserin, 37°C, 2 hours
T2 construct: expressed in transfected cells; host or cells: Jump-In HEK cells (membrane preparation)
T2 sequence (P28335 33-458): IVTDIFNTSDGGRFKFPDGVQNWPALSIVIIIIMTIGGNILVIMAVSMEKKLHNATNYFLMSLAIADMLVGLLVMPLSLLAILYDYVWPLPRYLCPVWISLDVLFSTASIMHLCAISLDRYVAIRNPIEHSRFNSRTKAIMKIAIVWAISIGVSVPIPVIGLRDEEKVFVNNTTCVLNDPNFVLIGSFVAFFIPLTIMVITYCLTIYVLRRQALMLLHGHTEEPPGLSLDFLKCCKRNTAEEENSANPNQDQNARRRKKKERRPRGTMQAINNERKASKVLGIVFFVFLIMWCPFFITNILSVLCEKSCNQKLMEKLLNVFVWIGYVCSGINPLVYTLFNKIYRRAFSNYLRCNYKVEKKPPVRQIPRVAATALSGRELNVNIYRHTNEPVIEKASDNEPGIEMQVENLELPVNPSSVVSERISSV
In short: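 Membranes expressing the receptor were incubated with compound and [3H]-Mesulergine for 2 h at 37 °C, then filtered and counted by scintillation. Non-specific binding was defined with 500 µmol/L Ketanserin. Percent inhibition versus vehicle gave dose-response curves, from which Ki was derived using a Kd from Scatchard saturation analysis.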

T1 sequence (Q12809 whole entry): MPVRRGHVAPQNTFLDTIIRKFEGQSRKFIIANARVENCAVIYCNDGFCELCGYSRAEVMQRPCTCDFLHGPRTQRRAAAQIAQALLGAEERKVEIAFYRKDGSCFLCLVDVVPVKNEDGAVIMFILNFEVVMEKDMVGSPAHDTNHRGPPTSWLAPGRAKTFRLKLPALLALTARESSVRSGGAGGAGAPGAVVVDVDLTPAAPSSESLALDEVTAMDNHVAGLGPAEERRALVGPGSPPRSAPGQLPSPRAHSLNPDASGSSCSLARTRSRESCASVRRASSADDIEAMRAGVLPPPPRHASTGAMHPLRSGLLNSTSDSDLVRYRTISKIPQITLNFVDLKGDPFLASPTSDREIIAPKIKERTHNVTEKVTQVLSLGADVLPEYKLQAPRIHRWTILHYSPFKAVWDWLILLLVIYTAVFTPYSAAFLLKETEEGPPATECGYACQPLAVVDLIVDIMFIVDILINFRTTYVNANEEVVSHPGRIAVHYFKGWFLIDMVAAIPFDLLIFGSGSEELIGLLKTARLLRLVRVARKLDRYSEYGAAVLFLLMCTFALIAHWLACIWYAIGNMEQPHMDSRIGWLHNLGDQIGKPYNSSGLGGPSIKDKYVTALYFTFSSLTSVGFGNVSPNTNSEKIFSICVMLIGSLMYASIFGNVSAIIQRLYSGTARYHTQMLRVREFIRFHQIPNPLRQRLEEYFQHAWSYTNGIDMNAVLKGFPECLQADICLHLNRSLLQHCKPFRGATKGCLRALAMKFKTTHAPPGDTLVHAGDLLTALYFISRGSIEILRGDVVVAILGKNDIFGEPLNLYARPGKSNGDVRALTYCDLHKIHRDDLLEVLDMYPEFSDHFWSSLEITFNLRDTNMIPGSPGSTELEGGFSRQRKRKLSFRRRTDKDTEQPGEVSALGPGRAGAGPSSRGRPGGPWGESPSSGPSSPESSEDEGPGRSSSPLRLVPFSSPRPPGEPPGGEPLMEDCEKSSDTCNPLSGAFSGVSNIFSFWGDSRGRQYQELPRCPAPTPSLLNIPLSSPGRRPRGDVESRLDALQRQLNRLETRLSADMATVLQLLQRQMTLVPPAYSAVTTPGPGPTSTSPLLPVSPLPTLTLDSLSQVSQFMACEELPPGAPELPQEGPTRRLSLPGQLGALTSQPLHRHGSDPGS

Ki [2] [nM] | SMILES | IC50 [1] [nM]
 | COCc1nc(C)c(-c2cc(Nc3ncc(OC(F)(F)F)cc3Cl)ncc2OCCO)c(C)n1 [Compound I-200] | > 52000
3.47 | Cn1ncc(F)c1-c1cc(Nc2ncc(C(F)(F)F)cc2F)cnc1OCCO [Compound I-127] | > 52000
0.822 | Cc1cnn(C)c1-c1cc(Nc2ncc(C(F)(F)F)cc2F)ccc1OCCO [Compound I-008] | 

SMILES | Ki [2] [nM] | IC50 [1] [nM]
Cn1ncc(Br)c1-c1cc(Nc2ncc(C(F)(F)F)cc2F)ccc1OCCO [Compound I-006] | 0.271 | > 52000

From patent EP4631938A1, “NITROGEN-CONTAINING HETEROCYCLE WITH SEROTONIN RECEPTOR-BINDING ACTIVITY AND CARBOCYCLIC DERIVATIVE” (Shionogi & Co., Ltd, priority 2022, dated 2024)
